Source: paper PMC7504677, “Impact of N-Alkylamino Substituents on Serotonin Receptor (5-HTR) Affinity and Phosphodiesterase 10A (PDE10A) Inhibition of Isoindole-1,3-dione Derivatives” (Molecules, 2020)

Columns and labels:
CD-1 mice [1] = assay: d-amphetamine-induced hyperlocomotor activity; format: in vivo
Experimental: The experiments were performed on male CD-1 mice (in the accredited animal facility at the Jagiellonian University Medical College, Krakow, Poland), and mice were kept in groups of ten in Makrolon type 3 cages (dimensions 26.5 × 15 × 42 cm). The animals were kept in an environmentally controlled room (ambient temperature 22 ± 2 °C; relative humidity 50–60%; 12:12 light:dark cycle, lights on at 8:00). They were allowed to acclimatize with the environment for one week before commencement of the experiments. Standard laboratory food (Ssniff M-Z) and filtered water were freely available. All the experimental procedures were approved by the I Local Ethics Commission at the Jagiellonian University in Krakow (Approval Nos.: 125/2017, 123/2015, and 158/2017). All the experiments were conducted in the light phase between 09.00 and 14.00 h. Each experimental group consisted of 7–10 animals per treatment dose. The animals were used only once. Locomotor activity was recorded with an Opto M3 multi-channel activity monitor (MultiDevice Software v.1.3, Columbus Instruments, Columbus, OH, USA). The CD-1 mice were individually placed in plastic cages (22 × 12 × 13 cm) immediately after drug administration, and then ambulation was counted during 1 h with data recording every 10 min. The cages were cleaned up with 70% ethanol after each mouse. […] All compounds were injected at a volume of 10 mL/kg. Control animals received a vehicle injection according to the same schedule.

PDE10A = PDE10A (Homo sapiens, UniProt Q9Y233); assay: luminescence PDE inhibition assay (PDElight HTS cAMP phosphodiesterase assay kit); format: biochemical
Experimental: Test and reference compounds were dissolved in dimethyl sulfoxide (DMSO) at a concentration of 1 mM and further diluted in assay buffer in order to obtain the final concentration of compounds: 10 µM and 3 µM, respectively. All reactions were carried out at 37 °C in white, half-area 96-well plates (Perkin Elmer, Waltham, MA, USA). The inhibition of PDE 10A enzyme was measured using the PDElight HTS cAMP phosphodiesterase assay kit (Lonza) according to the manufacturer’s recommendations. 2.5 U of PDE 10A enzyme was preincubated either with DMSO (vehicle control) or compound for 20 min before incubation with the substrate, cAMP (final concentration 1.25 µM), for 1 h. Then, PDELight AMP Detection Reagent was added. After 10 min incubation, the luminescence was measured in a multifunction plate reader (POLARstar Omega, BMG Labtech, Ortenberg, Germany).

CD-1 mice [2] = assay: spontaneous locomotor activity; format: in vivo; settings: for spontaneous locomotor activity: mean ± S.E.M.
Experimental: The experiments were performed on male CD-1 mice (in the accredited animal facility at the Jagiellonian University Medical College, Krakow, Poland), and mice were kept in groups of ten in Makrolon type 3 cages (dimensions 26.5 × 15 × 42 cm). The animals were kept in an environmentally controlled room (ambient temperature 22 ± 2 °C; relative humidity 50–60%; 12:12 light:dark cycle, lights on at 8:00). They were allowed to acclimatize with the environment for one week before commencement of the experiments. Standard laboratory food (Ssniff M-Z) and filtered water were freely available. All the experimental procedures were approved by the I Local Ethics Commission at the Jagiellonian University in Krakow (Approval Nos.: 125/2017, 123/2015, and 158/2017).
All the experiments were conducted in the light phase between 09.00 and 14.00 h. Each experimental group consisted of 7–10 animals per treatment dose. The animals were used only once.
Locomotor activity was recorded with an Opto M3 multi-channel activity monitor (MultiDevice Software v.1.3, Columbus Instruments, Columbus, OH, USA). The CD-1 mice were individually placed in plastic cages (22 × 12 × 13 cm) immediately after drug administration, and then ambulation was counted during 1 h with data recording every 10 min. The cages were cleaned up with 70% ethanol after each mouse.
Locomotor activity was recorded according to the method described above.
All compounds were injected at a volume of 10 mL/kg. Control animals received a vehicle injection according to the same schedule.

5-HT7 receptor = 5-HT7 receptor (Homo sapiens, UniProt P34969); assay: radioligand binding assay, [3H]-LSD; settings: read-out: 5-HT7 1 µM ± SEM (% of control specific binding)
Experimental: (§1) Briefly: binding experiments were conducted in 96-well microplates in a total final volume of 250 μL of appropriate buffers. Reaction mix included 50 μL solution of test compound, 50 μL of radioligand ([^3H]8-OH-DPAT for 5-HT1A, and [^3H]-LSD for 5-HT7, respectively) and 150 μL of diluted membranes (see description and Table S2 in Supporting Materials). Specific assay conditions for each receptor are described elsewhere. The radioactivity was measured in a MicroBeta2 scintillation counter (PerkinElmer, USA). Each compound was tested in the assay as duplicate samples at 1 µM final concentrations. Results were expressed as percent inhibition of specific binding.

5-HT2A receptor = target: T1, 5-HT2A receptor (Homo sapiens, UniProt P28223); assay: CEREP screening, inhibition of control binding; settings: CEREP Laboratories, read-out: percent of inhibition of the control binding for 5-HT2A
T1 construct: Cerep (protocol)

[3] = system: HePG2 human liver cancer cell-line; assay: MTT cytotoxicity assay; format: cell-based; settings: HepG2 cells, 24 h, 0.1–100 µM
Experimental: (§2) The HePG2 human liver cancer cell-line, (ATCC® 59195™) and the SH-SY5Y human neuroblastoma cell-line (ATCC® CRL-2266™) were used in the study. The cells were cultured in standard conditions (37 °C, 5% CO2), in EMEM (HepG2 and SH-SY5Y), supplemented with 10% fetal bovine serum (FBS) (Gibco, Thermo Fisher Scientific, Waltham, MA. USA) and antibiotics (Lonza, Köln, Germany).
(§3) The MTT assay was used to determine the cytotoxic effects of the analyzed compounds. Cells were seeded at a density of 2 × 10^4 in 96-well plates. Following overnight culture, cells were then treated with increasing concentrations of compound 18 (0.1–100 µM) and incubated for 24 h. Following cell exposure for 24 h, 10 µL MTT reagent (Sigma Aldrich) was added to each well and, after 3 h of incubation (37 °C, 5% CO2), the medium was aspirated and the formazan produced in the cells appeared as dark crystals in the bottom of the wells. Next, Crystal DMSO was added to each well. Then, the optical density (OD) of each well was determined at 570 nm on a plate-reader (Spectra iD3, Molecular Devices, San Jose, CA, USA). The number of metabolically active and living cells is directly proportional to the absorbance of the samples. The results are presented in Figure 5 as the percentage of control ± SEM. Doxorubicin was used as reference standard (cytotoxic agent).

[4] = system: SH-SY5Y human neuroblastoma cell-line; assay: MTT cytotoxicity assay; format: cell-based; settings: SHSY-5Y cells, 24 h, 0.1–100 µM
Experimental: as §2, §3

D2 receptor = target: T2, D2 receptor (Homo sapiens, UniProt P14416); assay: CEREP screening, inhibition of control binding; settings: CEREP Laboratories, read-out: percent of inhibition of the control binding for D2
T2 construct: Cerep (protocol)

5-HT1A receptor = target: T3, 5-HT1A receptor (Homo sapiens, UniProt P08908); assay: radioligand binding assay, [3H]8-OH-DPAT; settings: read-out: 5-HT1A 1 µM ± SEM (% of control specific binding)
T3 sequence (P08908 1-422): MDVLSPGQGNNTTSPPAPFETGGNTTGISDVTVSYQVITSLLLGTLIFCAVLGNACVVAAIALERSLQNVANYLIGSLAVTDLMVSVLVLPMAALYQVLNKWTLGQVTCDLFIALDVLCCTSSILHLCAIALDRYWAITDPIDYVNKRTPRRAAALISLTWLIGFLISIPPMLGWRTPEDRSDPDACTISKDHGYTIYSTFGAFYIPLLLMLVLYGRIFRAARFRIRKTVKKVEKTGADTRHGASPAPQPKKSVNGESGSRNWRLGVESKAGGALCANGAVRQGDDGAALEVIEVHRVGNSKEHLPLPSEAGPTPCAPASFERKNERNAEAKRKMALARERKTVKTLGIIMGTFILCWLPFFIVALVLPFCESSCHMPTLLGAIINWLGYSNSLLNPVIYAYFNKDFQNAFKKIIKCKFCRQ
Experimental: as §1

[5] = 60 mg/kg ip, 10 min of the test
[6] = 60 mg/kg ip, 20 min of the test
[7] = 60 mg/kg ip, 30 min of the test
[8] = 60 mg/kg ip, 60 min of the test

PDE10A, sequence (Q9Y233 whole entry, species assumed): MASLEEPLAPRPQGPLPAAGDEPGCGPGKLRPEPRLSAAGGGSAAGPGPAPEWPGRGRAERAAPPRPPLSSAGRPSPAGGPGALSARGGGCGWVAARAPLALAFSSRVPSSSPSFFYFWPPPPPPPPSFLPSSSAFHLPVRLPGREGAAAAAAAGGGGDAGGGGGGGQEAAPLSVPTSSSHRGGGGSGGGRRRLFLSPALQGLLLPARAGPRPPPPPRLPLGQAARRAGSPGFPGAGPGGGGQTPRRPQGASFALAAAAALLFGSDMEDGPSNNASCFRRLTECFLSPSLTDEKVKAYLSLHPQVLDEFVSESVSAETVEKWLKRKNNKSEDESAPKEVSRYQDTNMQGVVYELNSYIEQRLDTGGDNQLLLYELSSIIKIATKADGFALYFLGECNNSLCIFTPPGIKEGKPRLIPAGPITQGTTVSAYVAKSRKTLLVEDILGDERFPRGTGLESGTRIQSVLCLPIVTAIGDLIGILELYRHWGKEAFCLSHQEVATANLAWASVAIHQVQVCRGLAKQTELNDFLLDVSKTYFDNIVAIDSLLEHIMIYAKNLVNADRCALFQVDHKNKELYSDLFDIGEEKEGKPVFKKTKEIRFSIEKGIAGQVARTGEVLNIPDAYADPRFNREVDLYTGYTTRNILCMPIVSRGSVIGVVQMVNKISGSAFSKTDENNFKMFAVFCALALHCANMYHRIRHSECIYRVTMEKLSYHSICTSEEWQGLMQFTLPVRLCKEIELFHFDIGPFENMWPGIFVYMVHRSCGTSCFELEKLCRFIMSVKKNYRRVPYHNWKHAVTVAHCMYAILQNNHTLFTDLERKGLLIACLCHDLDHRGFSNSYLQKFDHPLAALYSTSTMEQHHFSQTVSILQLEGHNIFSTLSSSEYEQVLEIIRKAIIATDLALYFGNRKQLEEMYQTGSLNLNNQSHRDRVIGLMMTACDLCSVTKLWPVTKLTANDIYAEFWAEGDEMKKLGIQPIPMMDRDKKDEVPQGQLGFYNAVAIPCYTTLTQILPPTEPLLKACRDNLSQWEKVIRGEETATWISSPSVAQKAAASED
T2 sequence (P14416 whole entry): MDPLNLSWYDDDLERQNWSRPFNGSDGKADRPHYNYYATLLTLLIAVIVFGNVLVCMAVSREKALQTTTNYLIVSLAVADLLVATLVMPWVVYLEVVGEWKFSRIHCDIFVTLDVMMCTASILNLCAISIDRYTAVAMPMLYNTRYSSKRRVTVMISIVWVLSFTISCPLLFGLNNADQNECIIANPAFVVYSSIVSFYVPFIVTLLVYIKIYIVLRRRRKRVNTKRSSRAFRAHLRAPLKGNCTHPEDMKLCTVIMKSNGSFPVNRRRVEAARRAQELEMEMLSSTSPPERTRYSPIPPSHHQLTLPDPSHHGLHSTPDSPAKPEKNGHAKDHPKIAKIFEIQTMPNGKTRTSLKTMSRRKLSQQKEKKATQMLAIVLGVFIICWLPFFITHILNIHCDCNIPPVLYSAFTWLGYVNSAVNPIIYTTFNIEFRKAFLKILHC
5-HT7 receptor, sequence (P34969 whole entry): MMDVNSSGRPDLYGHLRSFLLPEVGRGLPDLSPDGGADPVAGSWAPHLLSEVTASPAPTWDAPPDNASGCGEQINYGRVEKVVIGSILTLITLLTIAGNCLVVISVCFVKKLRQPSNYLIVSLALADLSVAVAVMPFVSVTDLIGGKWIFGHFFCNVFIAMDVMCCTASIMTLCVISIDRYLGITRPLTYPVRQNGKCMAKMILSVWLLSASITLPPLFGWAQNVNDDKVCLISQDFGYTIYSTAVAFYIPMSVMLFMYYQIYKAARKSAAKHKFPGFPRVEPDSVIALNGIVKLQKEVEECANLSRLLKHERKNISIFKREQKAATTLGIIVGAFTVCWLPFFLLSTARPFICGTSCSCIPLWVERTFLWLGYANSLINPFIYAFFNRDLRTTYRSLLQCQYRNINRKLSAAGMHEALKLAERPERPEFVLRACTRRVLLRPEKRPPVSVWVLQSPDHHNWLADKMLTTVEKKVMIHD
T1 sequence (P28223 whole entry): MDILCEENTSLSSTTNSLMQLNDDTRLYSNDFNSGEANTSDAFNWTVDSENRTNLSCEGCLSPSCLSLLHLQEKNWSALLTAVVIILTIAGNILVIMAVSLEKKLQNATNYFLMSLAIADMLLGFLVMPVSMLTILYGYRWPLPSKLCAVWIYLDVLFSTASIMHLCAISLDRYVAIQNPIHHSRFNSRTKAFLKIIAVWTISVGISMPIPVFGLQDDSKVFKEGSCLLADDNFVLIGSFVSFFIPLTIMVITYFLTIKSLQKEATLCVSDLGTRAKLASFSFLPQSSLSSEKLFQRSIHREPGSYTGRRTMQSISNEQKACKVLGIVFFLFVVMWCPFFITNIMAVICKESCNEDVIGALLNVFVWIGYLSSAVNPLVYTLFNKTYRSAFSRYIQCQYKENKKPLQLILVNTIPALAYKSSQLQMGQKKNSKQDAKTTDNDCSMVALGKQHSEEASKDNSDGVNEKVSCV

For `COc1ccc(Cc2nccc3cc(OC)c(OC)cc23)cc1OC` [Papaverine, papaverine], the “effect on AMPH-induced hyperactivity” value (CD-1 mice [1]; 40 and 60 mg/kg ip) was “dose-dependently antagonized this response”, the “effect on AMPH-induced hyperactivity” value (CD-1 mice [1]; lower doses (data not shown)) was “did not change the stimulating effect of AMPH” and the “PDE10A [%] 3 µM” value (PDE10A; percentage of inhibition respective to vehicle control (DMSO), 3 µM) was 54%. The “PDE10A [%] 10 µM” value (PDE10A; percentage of inhibition respective to vehicle control (DMSO), 10 µM) was 75%, the spontaneous locomotor activity (CD-1 mice [2]; 40 mg/kg ip, 10 min of the test) was 43.1 and the spontaneous locomotor activity (CD-1 mice [2]; 40 mg/kg ip, 20 min of the test) was 170.2. It also gave a spontaneous locomotor activity (CD-1 mice [2]; 40 mg/kg ip, 30 min of the test) of 571.9, a spontaneous locomotor activity (CD-1 mice [2]; 40 mg/kg ip, 60 min of the test) of 2260.8 and a spontaneous locomotor activity (CD-1 mice [2]; [5]) of 7.1. The spontaneous locomotor activity (CD-1 mice [2]; [6]) was 24.6, the spontaneous locomotor activity (CD-1 mice [2]; [7]) was 47.5 and the spontaneous locomotor activity (CD-1 mice [2]; [8]) was 200.4. The “effect on spontaneous locomotor activity” value (CD-1 mice [2]; 40 and 60 mg/kg) was “locomotor-suppressing effects were observed”.
In the case of `COc1cccc2c1C(=O)N(CCCCc1nc3ccccc3[nH]1)C2=O` [Compound 18, 2-[4-(1H-Benzimidazol-2-yl)butyl]-4-methoxy-1H-isoindole-1,3(2H)-dione], the melting point is reported as 69 to 70 °C, the “effect on AMPH-induced hyperactivity” value (CD-1 mice [1]; 60 mg/kg ip) is reported as “decreased AMPH-induced hyperactivity, but only for the first 10 min after injection” and the “effect on AMPH-induced hyperactivity” value (CD-1 mice [1]; lower doses (data not shown)) is reported as “did not change the stimulating effect of AMPH”. For the same compound, the inhibition at 3 µM (PDE10A; 1 h, percentage of inhibition respective to vehicle control (DMSO), 3 µM) was 79%, the inhibition at 10 µM (PDE10A; 1 h, percentage of inhibition respective to vehicle control (DMSO), 10 µM) was 92% and the IC50 (PDE10A; SEM of three independent experiments performed in duplicate) was 0.886 ± 0.017 µM. The inhibition at 1 µM (5-HT7 receptor) was 3 ± 1%, the inhibition at 1 µM (5-HT2A receptor) was 8.8% and the “effect on spontaneous locomotor activity” value (CD-1 mice [2]; 60 mg/kg) was “locomotor-suppressing effects were observed”. For the same compound, the spontaneous locomotor activity (CD-1 mice [2]; [5]) was 176.2, the spontaneous locomotor activity (CD-1 mice [2]; [6]) was 285.0 and the spontaneous locomotor activity (CD-1 mice [2]; [7]) was 659.6. The spontaneous locomotor activity (CD-1 mice [2]; [8]) was 1875.4, the “cell viability (MTT)” value [3] was “Decreasing cell viability (HepG2/SHSY-5Y) is observed only at higher concentrations” and the “cell viability (MTT)” value [4] was “Decreasing cell viability (HepG2/SHSY-5Y) is observed only at higher concentrations”. It also gave an inhibition at 1 µM (D2 receptor) of 0% and an inhibition at 1 µM (5-HT1A receptor) of 28 ± 3%.
In the case of `COc1cccc2c1C(=O)c1c(O)c3c(c(O)c1C2=O)C[C@@](O)(C(=O)CO)C[C@@H]3O[C@H]1C[C@H](N)[C@H](O)[C@H](C)O1` [doxorubicin, reference compound], the “cell viability (MTT)” value [3] is reported as “significantly decreased cell viability already at much lower concentrations” and the “cell viability (MTT)” value [4] is reported as “significantly decreased cell viability already at much lower concentrations”.
